Usually IC50 stands for the concentration at which inhibition is half-maximal. What is called inhibition is the share of the control response that was lost under treatment.

Data set [1] addresses T1, Mushroom tyrosinase (mTyr) (Agaricus bisporus, UniProt C7FF04).
T1 construct: purchased Sigma-Aldrich
To be noted: substrate L-tyrosine; previous experiments; Liu et al., 2023; read-out: IC50, monophenolase activity of mTyr; cited from earlier work.

For data set [2], the system named is human immortalized keratinocyte (HaCaT) non-tumor cells. In words: CCK-8 cell proliferation and cytotoxicity assay, HaCaT. It is filed as cell-based. The procedure:
I. Cell lines and cell culture. Human melanoma A375 tumor cells and human immortalized keratinocyte (HaCaT) non-tumor cells were obtained from Nanjing Pusheng Biomedical Technology Co., Ltd. (Nanjing, China). The cells (A375/HaCaT) were cultured in Dulbecco’s modified Eagle’s medium (DMEM, Gibco, New York, NY, USA) supplemented with 10% (v/v) fetal bovine serum (FBS, Gibco, New York, NY, USA), and incubated at 37 °C with 5% CO2 in a humidified incubator.
II. Cell viability assay. Cell proliferation and cytotoxicity assays were conducted using the Cell counting kit-8 (CCK-8) on A375 and HaCaT cells. Briefly, the cells were initially seeded in 96-well plates at a density of 4 × 10^4 cells per well and incubated for 24 h at 37 °C with 5% CO2 in a humidified incubator. Each treatment was performed in six duplicate wells. The tested compounds were added at various concentrations, and the cells were then incubated for 72 h. Following the incubation period, CCK-8 solution (Dojindo Laboratories, Kumamoto, Japan) was added to each well, and the plates were further incubated for 2 h. The absorbance of each well at 450 nm was measured using an absorbance microplate reader (BioTek ELx800, Winooski, VT, USA). The assay included negative controls in which cells were treated with ultrapure water and positive controls in which cells were treated with 10 µg·mL^−1 taxol. The percentage of cell growth inhibition was calculated using the following Equation (3). (3) Cell growth inhibition rate [%]=B1−B2/B1−B3×100 where B1 represents the absorbance of a mixture containing cells, medium, and CCK-8 solution, B2 represents the absorbance of a mixture containing cells, medium, CCK-8 solution, and the test compound; and B3 represents a mixture containing medium and CCK-8 solution.

Data set [3] addresses T1, Mushroom tyrosinase (mTyr). In words: HPLC analysis of oxidation of L-DOPA catalyzed by mTyr. In kind it is biochemical. To be noted: 2 μg·mL^−1 inhibitor, 0.5 mM L-DOPA, 31.25 U·mL^−1 mTyr, 30 °C, 0-30 min. The method, then: The inhibitory effect of 6′-O-caffeoylarbutin on the oxidation of L-DOPA catalyzed by mTyr was studied using Agilent 1200 series HPLC analysis (Palo Alto, CA, USA), with minor modifications to the previous procedure. The experiment was conducted with 0.5 mM L-DOPA as a diphenolase substrate for 31.25 U·mL^−1 mTyr in the absence of an inhibitor. Subsequently, 2 μg·mL^−1 of 6′-O-caffeoylarbutin was added, and the reaction mixture was incubated for 0, 15, and 30 min at 30 °C. Samples (10 μL) were injected after filtration onto the HPLC system equipped with a Capcell pak C18 column (250 × 4.6 mm, 5 μm, Shiseido, Tokyo, Japan) operating at a flow rate of 1.0 mL·min^−1. The column temperature maintained at 30 °C and the detection wavelength was set at 280 nm. The mobile phase was consisted of water (A) and methanol (B), and a gradient elution employed with the following linear gradient for solvent B: 5% (0 min), 20% (10 min), 50% (20 min), 80% (25 min), and 100% (35 min).

Data set [4] deals with T1, Mushroom tyrosinase (mTyr). To be noted: substrate L-DOPA; previous experiments; Liu et al., 2023; read-out: IC50, diphenolase activity of mTyr; cited from earlier work.
The subject of a further data set is zebrafish. On the set-up: method as in PMID 24498931. To be noted: live zebrafish model; cited from earlier work.

“And” between values parts separate entries of the source, which are not always exact repeats. Equal values may be shown once. “Also recorded” adds a separate entry of the source. Read-outs that look alike come from different tables or passages of the source.

T1 sequence (C7FF04 1-392): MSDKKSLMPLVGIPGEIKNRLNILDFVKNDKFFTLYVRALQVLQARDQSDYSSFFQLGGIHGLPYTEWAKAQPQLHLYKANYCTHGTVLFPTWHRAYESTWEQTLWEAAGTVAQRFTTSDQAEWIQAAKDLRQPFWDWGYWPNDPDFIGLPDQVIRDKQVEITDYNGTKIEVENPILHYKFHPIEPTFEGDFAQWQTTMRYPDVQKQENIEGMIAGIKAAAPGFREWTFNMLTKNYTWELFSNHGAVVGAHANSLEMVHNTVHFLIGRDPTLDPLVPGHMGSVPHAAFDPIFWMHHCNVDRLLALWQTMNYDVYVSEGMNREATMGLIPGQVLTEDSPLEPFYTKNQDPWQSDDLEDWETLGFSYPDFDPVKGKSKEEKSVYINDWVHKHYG

On to `O=C(C=Cc1ccc(O)c(O)c1)OCC1OC(Oc2ccc(O)cc2)C(O)C(O)C1O` (stereo not drawn) [6′-O-caffeoylarbutin], for which the IC50 in data set [1] is 1.11 µM and 1.1 µM; in data set [2] (Homo sapiens, 72 h, CCK-8) it was greater than 400 µg/mL; in data set [4], 95.2 µM. In data set [2] (3.125–100 μg∙mL^−1, 72 h), the inhibition rate entry is recorded as “below 3%”. Further, the inhibition at 200 µg/mL in data set [2] (Homo sapiens, 200 μg∙mL^−1, 72 h, read-out: inhibition rate) was 3.6%. Further, in data set [2] (Homo sapiens, 400 μg∙mL^−1, 72 h, read-out: inhibition rate), the inhibition at 400 µg/mL was found to be 14.5%. For the same compound, the “oxidation products of L-DOPA (HPLC)” value in data set [3] is “significantly decrease”. For the same compound, the “inhibitory effect on melanin production relative to beta-arbutin” value with zebrafish is on record as “approximately two-fold higher; also recorded: approximately twice as potent as that of beta-arbutin”. Further, the “toxicity level relative to beta-arbutin” value with zebrafish is “around half that of beta-arbutin”.

The values are drawn from PMC10816276 (International Journal of Molecular Sciences, 2024).
